Measurements: ChEMBL document CHEMBL5226375, “Synthesis and Comprehensive in Vivo Activity Profiling of Olean-12-en-28-ol, 3β-Pentacosanoate in Experimental Autoimmune Encephalomyelitis: A Natural Remyelinating and Anti-Inflammatory Agent” (J Nat Prod, 2023)
Active and inactive are the calls of the source. No cut-off for these calls is given here.

Assays:
Mus musculus [1] = experiment: Anti-inflammatory activity against MOG35-55-induced experimental autoimmune encephalomyelitis C57BL/6 mouse model assessed as fold change in YWHAH gene expression in brain at 0.15 mg/kg/day, ig for 14 days starting from 12th day of immunization by RT-qPCR analysis relative to control; assay type: functional; settings: time 14 day
Mus musculus [2] = experiment: Anti-inflammatory activity against MOG35-55-induced experimental autoimmune encephalomyelitis C57BL/6 mouse model assessed as fold change in STAT3 gene expression in brain at 0.15 mg/kg/day, ig for 14 days starting from 12th day of immunization by RT-qPCR analysis relative to control; assay type: functional; settings: time 14 day
Mus musculus [3] = experiment: Anti-inflammatory activity against MOG35-55-induced experimental autoimmune encephalomyelitis C57BL/6 mouse model assessed as proportion of brain infiltrating cells expressing CD45+/CD11b/c high surface markers at […]/day, ig for 14 days starting from 12th day of immunization by flow cytometry (reference value: 87.7%); assay type: functional; settings: time 14 day
Mus musculus [4] = experiment: (§1) Anti-inflammatory activity against MOG35-55-induced experimental autoimmune encephalomyelitis C57BL/6 mouse model assessed as reduction in serum Th1 cytokine level by measuring reduction in IFNG level at 0.3 mg/kg/day, ig for 14 days starting from 12th day of immunization by ELISA; assay type: functional, organism-based; settings: time 14.0 day
Mus musculus [5] = experiment: Anti-inflammatory activity against MOG35-55-induced experimental autoimmune encephalomyelitis C57BL/6 mouse model assessed as methylation of CpG sites of IL13 gene promoter in brain at […], ig for 14 days starting from 12th day of immunization by PCR analysis (reference value: 57.3 +/-8%); assay type: functional; settings: time 14 day
Mus musculus [6] = experiment: Anti-inflammatory activity against MOG35-55-induced experimental autoimmune encephalomyelitis C57BL/6 mouse model assessed as fold change in CXCL10 gene expression in brain at 0.3 mg/kg/day, ig for 14 days starting from 12th day of immunization by RT-qPCR analysis relative to control; assay type: functional; settings: time 14 day
Mus musculus [7] = experiment: as §1, with “EAE symptoms” for “serum Th1 cytokine level”, “cumulative scores” for “IFNG level”, “and measured from day 12 to 38 post-immunization” for “by ELISA”; assay type: functional, organism-based; settings: time 1-26 day
Mus musculus [8] = experiment: Anti-inflammatory activity against MOG35-55-induced experimental autoimmune encephalomyelitis C57BL/6 mouse model assessed as fold change in APP gene expression in brain at 0.15 mg/kg/day, ig for 14 days starting from 12th day of immunization by RT-qPCR analysis relative to control; assay type: functional; settings: time 14 day
Mus musculus [9] = experiment: Anti-inflammatory activity against MOG35-55-induced experimental autoimmune encephalomyelitis C57BL/6 mouse model assessed as fold change in MAG gene expression in brain at 600 mg/kg/day, ig for 14 days starting from 12th day of immunization by RT-qPCR analysis relative to control; assay type: functional; settings: time 14 day
Mus musculus [10] = experiment: Anti-inflammatory activity against MOG35-55-induced experimental autoimmune encephalomyelitis C57BL/6 mouse model assessed as reduction in TGB1 protein expression in brain at 300 to 600 mg/kg/day, ig for 14 days starting from 12th day of immunization by western blot analysis; assay type: functional, organism-based; settings: dose 300-600 mg/kg/day, time 14.0 day
Mus musculus [11] = experiment: Anti-inflammatory activity against MOG35-55-induced experimental autoimmune encephalomyelitis C57BL/6 mouse model assessed as fold change in PLP gene expression in brain at 600 mg/kg/day, ig for 14 days starting from 12th day of immunization by RT-qPCR analysis relative to control; assay type: functional; settings: time 14 day
Mus musculus [12] = experiment: Anti-inflammatory activity against MOG35-55-induced experimental autoimmune encephalomyelitis C57BL/6 mouse model assessed as methylation of CpG sites of […] gene promoter in brain at 600 mg/kg, ig for 14 days starting from 12th day of immunization by PCR analysis (reference value: 45 +/-7%); assay type: functional; settings: time 14 day
Mus musculus [13] = experiment: (§2) Anti-inflammatory activity against MOG35-55-induced experimental autoimmune encephalomyelitis C57BL/6 mouse model assessed as reduction in EAE symptoms by measuring reduction in paralysis of hind limbs at 300 to 600 mg/kg/day, ig for 14 days starting from 12th day of immunization; assay type: functional, organism-based; settings: dose 300-600 mg/kg/day, time 14.0 day
Mus musculus [14] = experiment: as §2, with “cumulative scores” for “paralysis of hind limbs”, “at” for “at 300 to”, “immunization and measured from day 12 to 38 post-immunization” for “immunization”; assay type: functional, organism-based; settings: time 1-26 day
Mus musculus [15] = experiment: Anti-inflammatory activity against MOG35-55-induced experimental autoimmune encephalomyelitis C57BL/6 mouse model assessed as fold change in CD4 gene expression in brain at 600 mg/kg/day, ig for 14 days starting from 12th day of immunization by RT-qPCR analysis relative to control; assay type: functional; settings: time 14 day
Mus musculus [16] = experiment: Anti-inflammatory activity against MOG35-55-induced experimental autoimmune encephalomyelitis C57BL/6 mouse model assessed as reduction in EAE symptoms by measuring reduction in clinical score at 300 to 600 mg/kg/day, ig starting from 12th day of immunization and measured on day 14 post-immunization; assay type: functional, organism-based; settings: dose 300-600 mg/kg/day, time 2.0 day
[17] = Stability of the compound in THF/phosphate buffer at pH 6.5 incubated for 2 hrs under stirring conditions by 1H-NMR analysis; assay type: physicochemical; settings: pH 6.5, 2 h
Mus musculus [18] = experiment: Anti-inflammatory activity against MOG35-55-induced experimental autoimmune encephalomyelitis C57BL/6 mouse model assessed as fold change in STAT3 gene expression in brain at 300 mg/kg/day, ig for 14 days starting from 12th day of immunization by RT-qPCR analysis relative to control; assay type: functional; settings: time 14 day
Mus musculus [19] = experiment: Anti-inflammatory activity against MOG35-55-induced experimental autoimmune encephalomyelitis C57BL/6 mouse model assessed as reduction in serum […] cytokine level by measuring reduction in IL-17 level at 600 mg/kg/day, ig for 14 days starting from 12th day of immunization by ELISA; assay type: functional, organism-based; settings: time 14.0 day
[20] = Stability of the compound in THF/phosphate buffer at pH 7.4 incubated for 2 hrs under stirring conditions by 1H-NMR analysis; assay type: physicochemical; settings: pH 7.4, 2 h
[21] = Toxicity in C57BL/6 mouse assessed as serum LDH activity at 600 mg/kg/day, ig for 14 days by colorimetric analysis (reference value: 5.96 +/-1.08 U/ml); assay type: organism-based; settings: in vivo, po, 336 h, time 14 day
Mus musculus [22] = experiment: Anti-inflammatory activity against MOG35-55-induced experimental autoimmune encephalomyelitis C57BL/6 mouse model assessed as reduction in CCL5 protein expression in brain at 300 to 600 mg/kg/day, ig for 14 days starting from 12th day of immunization by western blot analysis; assay type: functional, organism-based; settings: dose 300-600 mg/kg/day, time 14.0 day
Mus musculus [23] = experiment: Anti-inflammatory activity against MOG35-55-induced experimental autoimmune encephalomyelitis C57BL/6 mouse model assessed as fold change in IL6 gene expression in brain at 300 mg/kg/day, ig for 14 days starting from 12th day of immunization by RT-qPCR analysis relative to control; assay type: functional; settings: time 14 day
Mus musculus [24] = experiment: Anti-inflammatory activity against MOG35-55-induced experimental autoimmune encephalomyelitis C57BL/6 mouse model assessed as fold change in CD4 gene expression in brain at 300 mg/kg/day, ig for 14 days starting from 12th day of immunization by RT-qPCR analysis relative to control; assay type: functional; settings: time 14 day

In the case of CCCCCCCCc1ccc(CCC(N)(CO)CO)cc1 [FINGOLIMOD], the “fold change (FC)” value (Mus musculus [1]) is reported as 1.1, the “fold change (FC)” value (Mus musculus [2]) is reported as 1.96 and the Activity (Mus musculus [3]) is reported as 46.6%. For the same compound, the Activity (Mus musculus [4]) was “Active”, the Activity (Mus musculus [5]) was 33.1% and the “fold change (FC)” value (Mus musculus [6]) was 2.17. For the same compound, the Activity (Mus musculus [7]) was “Active” and the “fold change (FC)” value (Mus musculus [8]) was 1.77.
With CCCCCCCCCCCCCCCCCCCCCCCCC(=O)O[C@H]1CC[C@]2(C)[C@H]3CC=C4[C@@H]5CC(C)(C)CC[C@]5(CO)CC[C@@]4(C)[C@]3(C)CC[C@H]2C1(C)C the “fold change (FC)” value (Mus musculus [9]) was -1.18, the Activity (Mus musculus [10]) was “Active” and the “fold change (FC)” value (Mus musculus [11]) was 1.14. For the same compound, the Activity (Mus musculus [12]) was 44.7%, the Activity (Mus musculus [13]) was “Active” and the Activity (Mus musculus [14]) was “Active”. The “fold change (FC)” value (Mus musculus [15]) was 1.55, the Activity (Mus musculus [16]) was “Active” and the Stability [17] was “Stable”. The “fold change (FC)” value (Mus musculus [18]) was 1.54, the Activity (Mus musculus [19]) was “Active” and the Stability [20] was “Stable”. The Activity [21] was 5.37 U/ml, the Activity (Mus musculus [22]) was “Active” and the “fold change (FC)” value (Mus musculus [23]) was 3.18. For the same compound, the “fold change (FC)” value (Mus musculus [24]) was 2.55.
